Laboratory results as given in ChEMBL document CHEMBL5137054, “Xyloketal B Reverses Nutritional Hepatic Steatosis, Steatohepatitis, and Liver Fibrosis through Activation of the PPARα/PGC1α Signaling Pathway” (J Nat Prod, 2022).
Calls of active or inactive are those of the source.

Key:
Format in all cases: functional, organism-based
Settings in all cases: time 6.0 weeks
Mus musculus [1] = experiment: Upregulation of Cyp4a14 gene transcriptional level in HFD-induced C57BL/6J mouse model of NAFL at 15 mg/kg/day, ip administered from week 7 to week 12 by qRT-PCR analysis
Mus musculus [2] = experiment: Upregulation of Cpt1c gene transcriptional level in HFD-induced C57BL/6J mouse model of NAFL at 15 mg/kg/day, ip administered from week 7 to week 12 by qRT-PCR analysis
Mus musculus [3] = experiment: Upregulation of Acox2 gene transcriptional level in HFD-induced C57BL/6J mouse model of NAFL at 15 mg/kg/day, ip administered from week 7 to week 12 by qRT-PCR analysis
Mus musculus [4] = experiment: Upregulation of Cpt1a gene transcriptional level in HFD-induced C57BL/6J mouse model of NAFL at 15 mg/kg/day, ip administered from week 7 to week 12 by qRT-PCR analysis
Mus musculus [5] = experiment: Upregulation of Acaa1a gene transcriptional level in HFD-induced C57BL/6J mouse model of NAFL at 15 mg/kg/day, ip administered from week 7 to week 12 by qRT-PCR analysis
Mus musculus [6] = experiment: Upregulation of Cyp4a10 gene transcriptional level in HFD-induced C57BL/6J mouse model of NAFL at 15 mg/kg/day, ip administered from week 7 to week 12 by qRT-PCR analysis
Mus musculus [7] = experiment: Upregulation of peroxisomal bifunctional enzyme gene transcriptional level in HFD-induced C57BL/6J mouse model of NAFL at 15 mg/kg/day, ip administered from week 7 to week 12 by qRT-PCR analysis
Mus musculus [8] = experiment: Upregulation of Medium-chain specific acyl-CoA dehydrogenase gene transcriptional level in HFD-induced C57BL/6J mouse model of NAFL at 15 mg/kg/day, ip administered from week 7 to week 12 by qRT-PCR analysis
Mus musculus [9] = experiment: Upregulation of Acox1 gene transcriptional level in HFD-induced C57BL/6J mouse model of NAFL at 15 mg/kg/day, ip administered from week 7 to week 12 by qRT-PCR analysis
Mus musculus [10] = experiment: Upregulation of long-chain specific acyl-CoA dehydrogenase gene transcriptional level in HFD-induced C57BL/6J mouse model of NAFL at 15 mg/kg/day, ip administered from week 7 to week 12 by qRT-PCR analysis
Mus musculus [11] = experiment: Upregulation of Cpt1b gene transcriptional level in HFD-induced C57BL/6J mouse model of NAFL at 15 mg/kg/day, ip administered from week 7 to week 12 by qRT-PCR analysis

Measured: Activity

CC(C)c1c(C(=O)Nc2ccccc2)c(-c2ccccc2)c(-c2ccc(F)cc2)n1CC[C@@H](O)C[C@@H](O)CC(=O)O
active: all assays above
